Test [1] relates to EC cells in monolayers derived from human transverse colon stem cells. The experiment in a line: 5HT secretion assay (ELISA of basal medium) on stem-cell-derived colonic monolayers after apical stimulation. It counts as cell-based. The following applies: for 5HT induction: pungent food ingredient screen, apical stimulation 4 h, EC-enriched monolayers, donor 2. In general terms: An ELISA detects its analyte on a solid surface through an enzyme-linked reagent.

The subject of test [2] is GLP-1+ L cells. The test can be described thus: Density of GLP-1+ L-cells on differentiated colonic monolayers. Format: cell-based, human. The note with it: for formation of L-cells: addition during differentiation, 4 days. An excerpt: Enteroendocrine (EEC) cells within the intestinal epithelium consist of at least 15 different subtypes. Enterochromaffin (EC) cells are the most abundant subtype, comprising about 40% of EEC cells in the gastrointestinal tract. Besides EC cells, at least one other important EE subtype is L-cells, which are major regulators of the gut-brain interactions and are pivotal in regulating appetite and glucose homeostasis^4. L-cells co-secrete peptide hormones GLP-1 and PYY in response to the ingestion of food^5-8. GLP-1 stimulates the secretion of insulin from pancreatic β-cells^9,10, decreases gastric emptying and increases satiation^11. PYY slows GI motility and reduces food intake^12. Due to their important function as regulators of postprandial response to nutrients, L-cells are of specific interest in the field of obesity and diabetes^3-17. L-cells were also identified in the VIP-ALI cultured monolayers at a density of 12±2 mm^2 and constituted about 14% of the EE population (FIG. 7). However, the density of L-cells is still too low to perform a reliable functional assay of GLP-1/PYY secretion. Thus, further experiments were conducted to develop optimal protocols to enrich L-cells (see Example 7).
Experiments were conducted to systemically optimize four conditions to enrich L-cells: (1) ±ALI, (2) ±VIP, (3) R-spondin/Noggin ratio at 1:4, 1:1 and 4:1 in differentiation medium, (4) ±BIMU8 (a potent 5-HT4 agonist). The colonic stem cells were plated on a porous membrane coated with Matrigel and cultured for 3 days in growth factor-enriched medium until the cell monolayer reach confluence. Then the cells were differentiated for 4 days and the density of GLP-1^+ L cells was used as the readout (FIG. 8A). […] The R-spondin/Noggin ratio in differentiation medium also affected the density of L-cells, and the best result was obtained by using a ratio of 4/1. By using the conditions disclosed herein (ALI, VIP, R-spondin/Noggin=4/1, BIMU8), 137±12 cells/mm^2 GLP-1^+ L-cells were obtained, which is about 46 times higher than 3±2 cells/mm^2 in the previously used conditions (submerged, —VIP, R-spondin/Noggin=1/1, -BIMU8), and 11 times higher than 12±2 mm^2 in VIP-ALI culture (+ALI, +VIP, R-spondin/Noggin=1/1, -BIMU8).

Test [3] concerns colonic monolayers derived from human transverse colon. The experiment in a line: Monolayer barrier integrity (Papp, TEER). Format: cell-based. The note with it: VIP-assisted ALI culture, n=6. An excerpt:
Besides the elevated 5HT secretion, an additional advantage of VIP-assisted ALI culture is the improved barrier integrity (FIG. 4D). […] The cell respiration combined with the low diffusion rate of oxygen in the growth medium can lead to a reduced oxygen availability to the cells.^22 ALI culture can increase the oxygen availability, but the cells were stressed due to the complete dry up at the apical surface. […] Conversely, VIP-assisted ALI culture maintained a thin layer of fluid (about 0.4 mm thick) at the apical side, thus increasing the oxygen availability and at the same time as eliminating the stress from dry up. The high integrity of monolayers is needed to effectively segregates the apical and basal reservoirs to prevent the leakage of the stimulants and 5HT.

Test [4] concerns EEC (ChgA+) and EC (5HT+) cells. The experiment in a line: Number of EEC (ChgA+) and EC (5HT+) cells on monolayers by immunofluorescence staining. It counts as cell-based. As to the method: (§1) The fraction of EC among EEC remained in the range of 45-51% in these differentiation conditions, which is consistent with their fraction in the body that EC make up over 70% of the EEC population in the proximal colon and falls to around 40% in the rectum.^2 To test if the enriched EC cells increases 5HT secretion, the monolayers were stimulated with vehicle (DMSO) or forskolin (10 μM). […] The induction is 6.1× over the vehicle control (0.62±0.07 ng/mL). Therefore, the enriched EC cells improves the 5HT secretion assay by increasing the signal/background ratio.
It is likely that stem cells make lineage-fate decisions at the proliferation stage toward enterocytes and goblets cells, which are the major cell types in the intestinal epithelium. We can add signaling molecules, such as CHIR99021, to prevent the early lineage-fate decision and force the stem cells to stay at their ground state. CHIR99021 activates Wnt signaling by inhibition of GSK3. When the stem cells were cultured in EM under 3 μM CHIR99021 prior to conventional submerged culture in DM, the presence of EC cells was increased by almost 200% (FIGS. 11A and 11B). […] Besides CHIR99021, other Wnt activators (WAY316606, ABC99, IQ1, arylpyrimidine), and recombinant proteins of Wnt-3A and R-spondin (Wnt signaling enhancer) may be able to increase the formation of EC cells. We have not studied the synergistic effect of Wnt activator (in EM) and VIP-assisted ALI (in DM), but we expect the combination of both strategies will further increase the formation of EEC and EC cells.

Test [5] deals with EC cells in monolayers derived from human transverse colon stem cells. The experiment in a line: 5HT secretion assay (ELISA of basal medium) on stem-cell-derived colonic monolayers after apical stimulation. It counts as cell-based.
Description: Culture conditions for intestinal epithelial monolayer platform have been optimized in a previous publication, and the medium composition for yielding the maximal expression levels of EEC cell lineage marker gene ChgA was investigated.^11 Nicotinamide and p38 MAP kinase inhibitor (SB202190), two compounds commonly used in intestinal epithelial cell culture, are removed from medium due to their suppression of differentiation towards secretory cells. Inclusion of A 8301, a TGF-β receptor signaling inhibitor, is required for proper differentiation and cell morphology of monolayer cultures. Herein, the same medium composition was adopted and the in vitro monolayers were generated from stem cells derived from human transverse colon using the traditional submerged culture. The EEC (ChgA+) and EC (5HT+) cells presented at a density of 22±5 and 10±3 mm^−2, respectively (FIG. 2A, 2B). Accordingly, the total number of EC cells in a 96-well insert (surface area=11 mm^2) is 110±33. To test if the number of EC cells is enough for functional assays, the monolayers were stimulated with vehicle (dimethyl sulfoxide [DMSO]) or forskolin (10 μM) at the apical side for 4 h, and the released 5HT from the basal side was collected and quantified (FIG. 2C). Forskolin is a potent stimulus of 5HT release though activation of the cAMP-dependent pathway.^18 In three independent experiments, stimulated 5HT secretion by forskolin was 0.97±0.34, 0.88±0.28, and 0.60±0.23 ng/mL, respectively, corresponding to 3.6×, 2.1× and 2.4× induction over the vehicle controls (0.27±0.10, 0.42±0.18 ng/mL, and 0.25±0.07 respectively). Significant inter-experiment variability was observed due to high standard deviation of the 5HT measurements: the results in the first experiment were considered to be statistically non-significant (p>0.05, t-test), statistically significant (p<0.05) in the second one, but statistically non-significant (p>0.05) again in the third experiment. The high standard deviation came from a number of sources: error in 5HT measurement through enzyme-linked immunosorbent assay (ELISA), well-to-well variation, 5HT residue (mainly from the fetal bovine serum in the medium) left in the well, and 5HT that spontaneously leached out from the apoptotic ECs during assay. To improve the reliability of 5HT secretion assay and its signal/background ratio, the number of EEC and EC cells in monolayers need to be enriched.
as §1
As the generation and storage of 5HT inside granules of EC cells depends on the cell maturation, the level of 5HT secretion is affected by the differentiation length of the monolayers. To find out the optimal duration for differentiation, the monolayers were subjected to VIP-assisted ALI culture for 3-7 days. As expected, the forskolin stimulated 5HT secretion increased with differentiation length (due to cell maturation), so did the non-stimulated basal secretion (FIG. 4E). The barrier integrity was remained (Papp<4×10^−7 cm/s) for all samples, except for those under 7 days in differentiation in which the cells may start to undergo apoptosis (FIG. 4F). 5 days in differentiation was considered to be optimal since it generated monolayers with high 5HT induction (5.7×) and monolayer barrier integrity. This duration is coincident with life span of differentiated epithelium in human colon. Unless otherwise specified, 5 days were used for differentiation in this invention. […]

Where [6] appears, read: ALI, VIP, R-spondin/Noggin=4/1, BIMU8.

Where “and” joins values, the source holds several entries; their conditions need not be identical. Equal entries are not always repeated. Bounds are passed on as bounds.

Take `COc1cc(/C=C/C(=O)CC(=O)/C=C/c2ccc(O)c(OC)c2)ccc1O` [curcumin]: the EC50 in test [1] (Homo sapiens, dose-dependent stimulation of 5HT secretion, read-out: median effective dose (E50) for 5HT secretion) worked out at 51 µM. In test [1], this compound displayed a 5HT induction of 7.3 ×.

Consider vasoactive intestinal peptide [VIP], for which the “L-cells as share of the EE population” value in test [2] (VIP-ALI cultured monolayers) is given as “about 14%”. Also, the “formation of L-cells” value in test [2] is on record as “increased the formation of L-cells”. For the same compound, in test [3], the “transepithelial electrical resistance (TEER)” value amounted to 842±166 ohms cm^2. Besides, in test [4] (VIP added to submerged culture), the “number of EC compared with submerged culture” value is reported as 180% and the “number of EEC compared with submerged culture” value is 177%. In test [4] (combination of ALI and VIP), the “density of EC” value is recorded as 43±9 mm^−2, the “density of EEC” value was 83±11 mm^−2, the “number of EC compared with traditional submerged culture without VIP” value stood at 430% and the “number of EEC compared with traditional submerged culture without VIP” value amounted to 377%.

For the compound `O=CC=Cc1ccccc1` [Cinnamaldehyde], in test [1], the 5HT induction is reported as 1.8 ×.

`C=C[C@@]1(C)CC(=O)[C@]2(O)[C@@]3(C)[C@@H](O)CCC(C)(C)[C@@H]3[C@H](O)[C@H](OC(C)=O)[C@@]2(C)O1` [forskolin]: the “5HT induction (forskolin/DMSO)” value in test [5] (donor 1, 2, and 5) is given as greater than 5.0; in test [5] (donor 3 and 4), less than 3.6. Further, the “stimulated 5HT secretion” value in test [5] (forskolin 10 μM apical 4 h, monolayers from traditional submerged culture, independent experiments) is 0.97 ± 0.34 ng/mL and 0.88 ± 0.28 ng/mL and 0.60 ± 0.23 ng/mL and 0.97 ± 0.44 ng/mL. The “induction of 5HT secretion over the vehicle control” value was 3.6 × and 2.1 × and 2.4 × in test [5] (forskolin 10 μM apical 4 h, submerged culture, three independent experiments); 6.1 × in test [5] (forskolin 10 μM, VIP-assisted ALI culture). Moreover, the “5HT secretion higher than that from submerged culture” value in test [5] (forskolin 10 μM, VIP-assisted ALI vs submerged culture) came out at 390%. In test [5] (forskolin 10 μM, monolayer from VIP-assisted ALI culture), the “5HT secretion under forskolin stimulation” value turned out to be 3.79 ± 0.57 ng/mL. Besides, the 5HT induction in test [5] (forskolin, VIP-assisted ALI culture, 5 days in differentiation (duration study 3-7 days)) stood at 5.7 ×; in test [1], 4.9 ×. In test [5] (stem cell passage numbers 7, 9, 11, 13 and 15), the “induction of 5HT secretion (forskolin/DMSO)” value is listed as 4.1-5.7 ×.

In the case of `Cc1c[nH]c(-c2cnc(NCCNc3ccc(C#N)cn3)nc2-c2ccc(Cl)cc2Cl)n1` [CHIR99021], the “increase of presence of EC cells” value in test [4] (3 μM CHIR99021 in EM prior to conventional submerged culture in DM) is listed as roughly 200%.

Turning to `CC(C)n1c(=O)n(C(=O)NC2CC3CCC(C2)N3C)c2ccccc21` (stereo not drawn) [BIMU8], in test [2] (setting [6]), the “L-cell density, times higher than VIP-ALI culture (+ALI, +VIP, R-spondin/Noggin=1/1, -BIMU8)” value is reported as 11 times and the “L-cell density, times higher than previously used conditions (submerged, -VIP, R-spondin/Noggin=1/1, -BIMU8)” value is given as “about 46 times”. Moreover, in test [2] (ALI, VIP, R-spondin/Noggin=4/1, BIMU8, 4 days differentiation), the “GLP-1+ L-cells density” value is listed as 137±12 cells/mm^2. Besides, in test [2], the “formation of L-cells” value is “increased the formation of L-cells”.

The values above are taken from US20230147744A1, “METHODS TO ENRICH ENTEROENDOCRINE CELLS AND THEIR SUBTYPES IN THE CONTIGUOUS, INTESTINAL MONOLAYER SYSTEMS” (The University of North Carolina at Chapel Hill, priority 2020, published 2023).
